Where a name gives a salt, the structure may show the parent alone. Read-outs that look alike come from different tables or passages of the source.
Key:
[1] = molecular target: T1, viral reverse transcriptase (Human immunodeficiency virus type 1 group M subtype B, UniProt P04585); assay: Viral reverse transcriptase inhibition, cell free assay; assay type: biochemical, human immunodeficiency virus (HIV-1)
T1 construct: Viral reverse transcriptase is found in extracts from bacterial clones; made in house; host or cells: Escherichia coli (extracts of bacterial clones, by the procedure of Larder et al., EMBO J. 6:3133-3137, 1987)
Description: The utility of the diaromatic substituted piperazines (III), the anti-AIDS piperazines (IV) and the indoles (V) of this invention can be determined by their ability to inhibit viral reverse transcriptase, an enzyme essential for human immunodeficiency virus replication. This enzyme has characteristics which differentiate it from other known cellular polymerases and it is a unique enzyme which is not found in uninfected cells. Viral reverse transcriptase is found in extracts from bacterial clones prepared according to the procedure described in AIDS Virus Reverse Transcriptase defined by high level expression in Escherichia coli, EMBO J. 6:3133-3137 (1987). Inhibition of this enzyme is determined in a cell free assay which measures the level of radioactive precursors incorporated into DNA. Extracts prepared according to the procedure of Science, 1125-1129 (1981) are incubated in a mixture of inhibitor, 20 mM dithiothreitol, 60 mM sodium chloride, 0.05% NP-40, 10 mM magnesium chloride, 50 mM Tris pH 8.3, 10 μM [^35 S]-labeled deoxynuleoside-5'-triphosphate, 10 μg/ml RNA template (poly rC or poly rG) and 5 μg/ml DNA primer (oligo dG or oligo dT) for 30 minutes at 37° C. Incorporation of radio-labeled percursor is determined by spotting aliquots of the reaction mixture on DE81 paper, washing the papers to remove unincorporated percursor, drying and determining counts. The results (IC50 means the concentration, in μM of drug, required to inhibit the reverse transcriptase activity to the extent of 50%) of various assay(s) are combined and reported as % inhibition and IC50 (calculated).
^1 Viral reverse transcriptase is found in extracts from bacterial
clones prepared according to the procedure described by Larder, B.,
Purifoy D., Powell, K. and Darby, G., AIDS virus reverse transcriptase
defined by high level expression in Escherichia coli., EMBO J. 6,
3133-3137 (1987). Inhibition of this enzyme is determined in a cell free
assay which measures the level of radioactive precursors incorporated int
DNA. Extracts prepared according to the procedure of Kleid, D. G., et
al., Science, 1125-1129 (1981) are incubated in a mixture of inhibitor, 2
mM dithiothreitol, 60 mM sodium chloride, 0.05% NP40, 10 mM magnesium
chloride, 50 mM Tris pH 8.3, 10 μM [^35 Slabeled
deoxynucleoside5triphosphate, 10 μg/ml RNA template (poly rC or poly
rG) and 5 μg/ml DNA primer (oligo dG or oligo dT) for 15 minutes at
37°. Incorporation of radio labeled precursor is determined by
harvesting the trichloroacetic acid precipitated reaction mixtures on
glass fiber filters, drying, and determining counts. The results of
various assays are combined and reported as % inhibition at a 100 μM

[2] = test system: HIV in primary human peripheral blood lymphocytes; assay: Primary PBL assay: inhibition of viral replication (p24 & RNA); assay type: cell-based; settings: Human immunodeficiency virus 1, Lymphocyte, primary human lymphocytes infected with HIV, days three and four, read-out: PBL INHIBITION OF VIRAL REPLICATION (p24 & RNA) ED50
Method: ^3 The utility of the compounds of the invention is further
infection in primary peripheral blood lymphocytes (primary PBL assay). Th
primary PBL assay offers the following advantages:
(a) The assays are performed with primary human lymphocytes. Thereby,
undesired testing of transformed cell lines is avoided in which host cell
and virus may have undergone processes of mutual adaptation. Performance
of cell culture in serum containing media closely mimics the in vivo
situation. (b) The primary PBL assay distinguishes between true antiviral
effect which is due to the drug and cytostatic/cytotoxic reactions. (c)
Viral replication is precisely followed by kinetic measurement of viral
nucleic acids and proteins. (d) Nucleic acids (total HIVRNA intra and
extracellular) and protein (secreted p24) are measured in parallel which
permits one to differentiate between the compound's effect on virus
replication and on the expression of viral proteins. This leads to
additional information regarding the efficacy of the test compound. (e)
Tolerance of the cell culture against low amounts of organic solvents als
permits the investigation of hydrophobic substances. (f) The dose of the
drug causing half maximal suppression of virus replication is determined.
(g) The screening system is standardized and automated to a high degree.
The primary PBL assay uses the following procedure:
Effects of the compounds of the invention on cell proliferation are determined by lymphocyte proliferation assays. Starting with a 100 micromolar solution, the compound is serially diluted 10 fold. One tenth of the concentration of a compound causing half maximal inhibition of cellular proliferation is employed for all subsequent testing.
Peripheral human lymphocytes are isolated by density gradient centrifugation. After stimulation by mitogen the cells are infected with a standardized preparation of HIV. Subsequently, the infected cells are cultured in the presence of the drug for four days. Individual cultures are established to measure viral replication three and four days following infection. Untreated cells and AZT-treated cells are included as controls in parallel with the drugs under investigation.
The amount of viral core protein p24 synthesized and release by the infected cells is determined in the supernatant by the capture-ELISA technique on days three and four. By comparing with a standard preparation, the amount of protein produced by the virus infected cells is quantified.
The total amount of viral RNA synthesized by the infected lymphocytes is determined by a special nucleic acid hybridization on days three and four of culture. By including a standard preparation of HIV-RNA the amount of synthesized RNA is quantified.
In addition, viability of HIV-infected cells is determined in parallel with assays for viral p24 and RNA. In order to evaluate the half maximal antiviral effect of the drug, a concentration dependency of the drug action is measured.
Numerous examples of the compounds of the invention are assayed according to this procedure. The anti-HIV activity, as measured by the inhibition of the release of core p24 protein in HIV infected human lymphocytes, is used to calculate ED50 -antiviral (the concentration required to give a 50% reduction in p24 synthesis).

[3] = read-out: RT % INHIBITION (100 μM), 100 μM, poly rC or poly rG template

| SMILES | inhibition at 100 µM [1, 3] [%] | EC50 [2] [nM] | inhibition at 100 µM ([1]; read-out: RT % INHIBITION (100 μM)) [%] |
| --- | --- | --- | --- |
| Cc1ccc2[nH]c(C(=O)N3CCN(c4ncccc4NC(C)C)CC3)cc2c1 [Example 89, 1-[5-Methylindolyl-2-carbonyl]-4-[3-(1-methylethylamino)-2-pyridinyl]piperazine] | 61 to 74 | 100 |  |
| COc1ccc2cc(C(=O)N3CCN(c4ncccc4NC(C)C)CC3)[nH]c2c1Br [Example 92, 1-[7-Bromo-6-methoxyindolyl-2-carbonyl]-4-[3-(1-methylethyl-amino)-2-pyridinyl]piperazine] | 94 | 100 to 1000 |  |
| CC(C)Nc1cccnc1N1CCN(C(=O)c2cc3ccc(N(C)C)cc3[nH]2)CC1 [Example 95, 1-[6-(N,N-Dimethylamino)indolyl-2-carbonyl]-4-[3-(1-methylethylamino)-2-pyridinyl]piperazine] | 81 to 93 | < 1 |  |
| CC(C)(C)CNc1cccnc1N1CCN(C(=O)c2cc3cc(F)ccc3[nH]2)CC1 [Example 102, 1-[5-Fluoroindolyl-2-carbonyl]-4-[3-(2',2'-dimethylpropylamino)-2-pyridinyl]piperazine] | 48 | 10000 |  |
| CC(C)Nc1cc(F)ccc1N1CCN(C(=O)c2cc3ccccc3[nH]2)CC1 [Example 74, 1-[Indolyl-2-carbonyl]-4-[2-(1-methylethylamino)-4-fluorophenyl]piperazine] | 82 to 84 | 10 to 100 |  |
| CC(C)Nc1cccnc1N1CCN(C(=O)c2cc3cc(O)ccc3[nH]2)CC1 [Example 38, 1-[5-Hydroxyindolyl-2-carbonyl]-4-[3-(1-methylethylamino)-2-pyridinyl]piperazine] | 96 to 98 | < 1 |  |
| CCNc1cccnc1N1CCN(C(=O)c2cc3ccc(OC)c(C)c3[nH]2)CC1 [Example 71, 1-[6-Methoxy-7-methylindolyl-2-carbonyl]-4-(3-ethylamino-2-pyridinyl)piperazine] | 88 to 95 | 10 to 100 |  |
| COc1cc2[nH]c(C(=O)N3CCN(c4ncccc4NC(C)C)CC3)cc2cc1Br [Example 94, 1-[5-Bromo-6-methoxyindolyl-2-carbonyl]-4-[3-(1-methylethylamino)-2-pyridinyl]piperazine] | 85 | 10 to 100 |  |
| CC(C)Nc1cccnc1N1CCN(C(=O)c2cc3cc(NS(C)(=O)=O)ccc3[nH]2)CC1 [Example 105, 1-[5-Methanesulfonamidoindolyl-2-carbonyl]-4-[3-(1-methylethylamino)-2-pyridinyl]piperazine] |  | ≤ 1 | 82 to 96 |
| C=CCNc1cccnc1N1CCN(Cc2cc(C)c(OC)c(C)c2)CC1 [Example 116, 1-[4-Methoxy-3,4-dimethylbenzyl]-4-(3-(2-propenylamino)-2-pyridinyl]piperazine, hydrochloride] | 45 to 52 | < 10000 |  |
| CC(C)Nc1cccnc1N1CCN(C(=O)c2ccc[nH]2)CC1 [Example 69, 1-[Pyrrolyl-2-carbonyl]-4-[3-(1-methylethylamino)-2-pyridinyl]piperazine] | 95 | 100 |  |
| CC(C)Nc1nccnc1N1CCN(C(=O)c2cc3cc(F)ccc3[nH]2)CC1 [Example 47, 1-(5-Fluoroindolyl-2-carbonyl)-4-[3-(1-methylethylamino)-2-pyrazinyl]piperazine] | 91 | 1 to 10 |  |
| CC(C)Nc1cncnc1N1CCN(C(=O)c2cc3cc(F)ccc3[nH]2)CC1 [Example 48, 1-(5-Fluoroindolyl-2-carbonyl)-4-[5-(1-methylethylamino)-4-pyrimidinyl]piperazine] | 63 to 92 | 10 to 100 |  |
| O=C(c1cc2ccccc2[nH]1)N1CCN(c2ncccc2NC2CCCC2)CC1 [Example 56, 1-(Indolyl-2-carbonyl)-4-(3-cyclopentylamino-2-pyridinyl)piperazine] | 79 to 93 | 100 to 1000 |  |
| CC(C)Nc1cccnc1N1CCN(C(=O)c2cc3ccc(F)cc3[nH]2)CC1 [Example 132] | 95 to 98 | 1 to 10 |  |
| CC(C)Nc1cccnc1N(C)CCN(C)C(=O)c1cc2ccccc2[nH]1 [Example 52, N,N'-Dimethyl-N-(indolyl-2-carbonyl)-N'-(3-(1-methylethylamino)pyrid-2-yl)ethylenediamine] | 89 to 94 | 100 to 1000 |  |
| Cc1cccc2[nH]c(C(=O)N3CCN(c4ncccc4NC(C)C)CC3)cc12 [Example 97, 1-[4-Methylindolyl-2-carbonyl]-4-[3-(1-methylethylamino)-2pyridinyl]-piperazine] | 52 to 80 | ≤ 10 |  |
| CNc1cccnc1N1CCN(C(=O)c2cc3cc(F)ccc3[nH]2)CC1 [Example 63, 1-(5-Fluoroindolyl-2-carbonyl)-4-[3-methylamino-2-pyridinyl]piperazine] | 82 to 88 | 1000 |  |
| CC(C)Nc1ccnnc1N1CCN(C(=O)c2cc3ccccc3[nH]2)CC1 [Example 49, 1-(Indolyl-2-carbonyl)-4-[4-(1-methylethylamino)-3-pyridazinyl]piperazine, methane sulfonate] | 84 to 94 | ≤ 100 |  |
| Cc1c(C(=O)N2CCN(c3ncccc3NC(C)C)CC2)[nH]c2ccccc12 [Example 73, 1-[3-methylindolyl-2-carbonyl]-4-[3-(1-methylethylamino)-2-pyridinyl]piperazine] | 94 to 95 | < 1 |  |
| CNc1cccnc1N1CCN(C(=O)c2cc3cc(OC)ccc3[nH]2)CC1 [Example 64, 1-(5-Methoxyindolyl-2-carbonyl)-4-[3-(methylamino)-2-pyridinyl]piperazine] | 88 to 94 | ≤ 1000 |  |
| CC(C)Nc1cccnc1N1CCN(C(=O)c2cc3cc(OCC(=O)O)ccc3[nH]2)CC1 [Example 61, sodium salt] | 91 | 1000 |  |
